Laboratory results reported in ChEMBL document CHEMBL1151887 (Bioorg Med Chem, 2009).

Columns and labels:
[1] = molecular target: T1, Adenosine receptor A1 (Homo sapiens) (UniProt P30542); assay: Displacement of [3H]NECA from human recombinant adenosine A1 receptor expressed in CHO cells at 10 uM by liquid scintillation counting; assay type: cell-based
T1 sequence (whole entry): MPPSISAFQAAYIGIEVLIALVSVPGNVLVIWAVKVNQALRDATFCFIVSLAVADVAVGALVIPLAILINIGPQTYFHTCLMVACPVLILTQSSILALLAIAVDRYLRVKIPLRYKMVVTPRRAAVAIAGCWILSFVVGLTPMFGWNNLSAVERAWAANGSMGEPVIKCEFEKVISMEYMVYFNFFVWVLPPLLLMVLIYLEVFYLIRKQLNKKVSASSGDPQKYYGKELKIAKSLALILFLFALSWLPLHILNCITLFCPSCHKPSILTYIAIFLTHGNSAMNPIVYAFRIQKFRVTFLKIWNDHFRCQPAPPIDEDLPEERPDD

Adenosine receptor A2a [2] = molecular target: T2, Adenosine receptor A2a (Homo sapiens, UniProt P29274); assay: Displacement of [3H]CGS21680 from human recombinant adenosine A2a receptor expressed in HEK293 cells at 10 uM by liquid scintillation counting; assay type: cell-based
Adenosine receptor A3 [3] = molecular target: T3, Adenosine receptor A3 (Homo sapiens, UniProt P0DMS8); assay: Displacement of [125I]I-AB-MECA from human recombinant adenosine A3 receptor expressed in CHO cells by liquid scintillation counting
T3 sequence (P0DMS8 whole entry): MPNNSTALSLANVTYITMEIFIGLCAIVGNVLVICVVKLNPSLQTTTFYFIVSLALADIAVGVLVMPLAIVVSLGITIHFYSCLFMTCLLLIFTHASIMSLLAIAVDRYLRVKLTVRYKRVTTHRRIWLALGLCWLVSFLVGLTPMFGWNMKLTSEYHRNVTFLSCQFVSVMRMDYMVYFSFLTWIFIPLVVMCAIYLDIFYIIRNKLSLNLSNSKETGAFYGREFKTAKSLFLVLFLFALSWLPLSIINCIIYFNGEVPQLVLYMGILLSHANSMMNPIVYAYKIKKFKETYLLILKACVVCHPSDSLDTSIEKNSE

Adenosine receptor A2a [4] = molecular target: T2, Adenosine receptor A2a; assay: Displacement of [3H]CGS21680 from human recombinant adenosine A2a receptor expressed in HEK293 cells by liquid scintillation counting; assay type: cell-based
Adenosine receptor A3 [5] = molecular target: T4, Adenosine receptor A3 (Rattus norvegicus, UniProt P28647); assay: Binding affinity to rat adenosine A3 receptor
T4 sequence (P28647 whole entry): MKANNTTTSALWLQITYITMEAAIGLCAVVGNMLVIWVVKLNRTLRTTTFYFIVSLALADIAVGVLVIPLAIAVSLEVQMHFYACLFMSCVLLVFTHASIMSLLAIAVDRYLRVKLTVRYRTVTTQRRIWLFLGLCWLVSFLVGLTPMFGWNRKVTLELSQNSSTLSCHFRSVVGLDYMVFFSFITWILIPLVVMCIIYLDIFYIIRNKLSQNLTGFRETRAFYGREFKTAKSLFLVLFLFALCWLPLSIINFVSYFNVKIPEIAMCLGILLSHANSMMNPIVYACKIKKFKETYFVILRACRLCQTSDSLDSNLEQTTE

T2 sequence (P29274 whole entry): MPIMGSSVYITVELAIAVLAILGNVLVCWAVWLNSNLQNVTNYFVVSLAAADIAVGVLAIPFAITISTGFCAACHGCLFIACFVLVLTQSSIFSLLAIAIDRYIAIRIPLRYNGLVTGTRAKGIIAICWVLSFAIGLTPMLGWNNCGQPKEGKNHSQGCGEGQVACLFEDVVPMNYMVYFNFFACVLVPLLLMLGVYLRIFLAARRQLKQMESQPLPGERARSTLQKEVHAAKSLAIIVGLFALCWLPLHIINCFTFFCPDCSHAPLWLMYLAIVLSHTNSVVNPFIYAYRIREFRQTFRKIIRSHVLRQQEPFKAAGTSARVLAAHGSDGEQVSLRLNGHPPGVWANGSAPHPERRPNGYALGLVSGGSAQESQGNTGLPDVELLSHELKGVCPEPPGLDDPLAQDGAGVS

| SMILES | inhibition [1] [%] | inhibition (Adenosine receptor A2a [2]) [%] | Ki (Adenosine receptor A3 [3]) [nM] | Ki (Adenosine receptor A2a [4]) [nM] | Ki (Adenosine receptor A3 [5]) [nM] |
| --- | --- | --- | --- | --- | --- |
| O[C@@H]1[C@H](O)CO[C@H]1n1cnc2c(NCc3cccc(F)c3)nc(Cl)nc21 | 43 | 42 | 284 | – | – |
| CNc1ncnc2c1ncn2[C@@H]1OC[C@@H](O)[C@H]1O | 44 | 25 | 70.1 | – | – |
| O[C@@H]1[C@H](O)CO[C@H]1n1cnc2c(NCc3cccc(F)c3)ncnc21 | 36 | – | 537 | 6560 | – |
| O[C@@H]1[C@H](O)CO[C@H]1n1cnc2c(NCc3cccc(Br)c3)nc(Cl)nc21 | – | 30 | – | – | 82.8 |
| O[C@@H]1[C@H](O)CO[C@H]1n1cnc2c(NCc3cccc(Cl)c3)ncnc21 | – | – | 76.1 | 3410 | – |
| CNc1nc(Cl)nc2c1ncn2[C@@H]1OC[C@@H](O)[C@H]1O | 49 | 15 | 37.5 | – | – |
| O[C@@H]1[C@H](O)CO[C@H]1n1cnc2c(NCc3cccc(Cl)c3)nc(Cl)nc21 | – | – | 75 | 3630 | – |
| O[C@@H]1[C@H](O)CO[C@H]1n1cnc2c(NCc3cccc(I)c3)nc(Cl)nc21 | – | 43 | – | – | – |
| O[C@@H]1[C@H](O)CO[C@H]1n1cnc2c(NCc3cccc(I)c3)ncnc21 | – | – | 90.2 | 997 | – |
| O[C@@H]1[C@H](O)CO[C@H]1n1cnc2c(NCc3cccc(Br)c3)ncnc21 | – | – | 59 | 1400 | – |
